Measured values from paper PMC9730482 (ACS Omega, 2022).

Target: α-glucosidase (Saccharomyces cerevisiae, UniProt P38158)
Experiment: In vitro α-glucosidase inhibition assay
Format: biochemical, S. cerevisiae
Settings: for inhibition at 500 µM: read-out: percent inhibition (0.5 mM)

Sequence of α-glucosidase (P38158 whole entry): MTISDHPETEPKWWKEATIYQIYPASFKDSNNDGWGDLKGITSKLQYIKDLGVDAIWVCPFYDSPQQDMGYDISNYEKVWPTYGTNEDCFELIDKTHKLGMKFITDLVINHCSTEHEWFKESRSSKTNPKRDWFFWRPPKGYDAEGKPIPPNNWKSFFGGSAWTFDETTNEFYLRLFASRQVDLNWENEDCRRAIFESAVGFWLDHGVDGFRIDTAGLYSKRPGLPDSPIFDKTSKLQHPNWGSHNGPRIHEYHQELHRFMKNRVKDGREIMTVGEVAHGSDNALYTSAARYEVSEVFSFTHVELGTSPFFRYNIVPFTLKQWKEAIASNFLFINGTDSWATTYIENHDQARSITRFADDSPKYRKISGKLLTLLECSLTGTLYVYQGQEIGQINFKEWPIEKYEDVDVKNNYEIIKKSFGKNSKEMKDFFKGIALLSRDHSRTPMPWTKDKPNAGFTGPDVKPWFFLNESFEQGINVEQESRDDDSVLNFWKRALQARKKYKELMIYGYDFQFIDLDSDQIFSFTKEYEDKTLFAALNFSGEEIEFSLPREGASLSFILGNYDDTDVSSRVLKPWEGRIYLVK

SMILES: Oc1ccc(C=Nc2ccc3[nH]c(S)nc3c2)cc1 [7a, 4-(((2-Mercapto-1H-benzo[d]imidazol-5-yl)imino)methyl)phenol]
- IC50: 11.8 ± 0.26 µM
- inhibition at 500 µM: 95.7%

SMILES: Sc1nc2cc(N=Cc3ccc(Cl)cc3)ccc2[nH]1 [7b, 5-((4-Chlorobenzylidene)amino)-1H-benzo[d]imidazole-2-thiol]
- IC50: 27.3 ± 0.3 µM
- inhibition at 500 µM: 93.2%

SMILES: O=[N+]([O-])c1ccc(C=Nc2ccc3[nH]c(S)nc3c2)cc1 [7c, 5-((4-Nitrobenzylidene)amino)-1H-benzo[d]imidazole-2-thiol]
- IC50: 9.84 ± 0.08 µM
- inhibition at 500 µM: 95.7%

SMILES: CCN(CC)c1ccc(C=Nc2ccc3[nH]c(S)nc3c2)cc1 [7d, 5-((4-(Diethylamino)benzylidene)amino)-1H-benzo[d]imidazole-2-thiol]
- IC50: 5.34 ± 0.16 µM
- inhibition at 500 µM: 96.6%

SMILES: COc1cccc(C=Nc2ccc3[nH]c(S)nc3c2)c1O [7e, 2-(((2-Mercapto-1H-benzo[d]imidazol-5-yl)imino)methyl)-6-methoxyphenol]
- IC50: 16.4 ± 0.53 µM
- inhibition at 500 µM: 91.3%

SMILES: COc1ccc(C=Nc2ccc3[nH]c(S)nc3c2)c(OC)c1 [7f, 5-((2,4-Dimethoxybenzylidene)amino)-1H-benzo[d]imidazole-2-thiol]
- IC50: 6.46 ± 0.3 µM
- inhibition at 500 µM: 95%

SMILES: COc1ccc(C=Nc2ccc3[nH]c(S)nc3c2)cc1OC [7h, 5-((3,4-Dimethoxybenzylidene)amino)-1H-benzo[d]imidazole-2-thiol]
- IC50: 20.7 ± 0.59 µM
- inhibition at 500 µM: 91.7%

SMILES: Oc1ccc(C=Nc2ccc3[nH]c(S)nc3c2)c(O)c1 [7i, 4-(((2-Mercapto-1H-benzo[d]imidazol-5-yl)Imino)methyl)benzene-1,3-diol]
- IC50: 0.64 ± 0.05 µM
- inhibition at 500 µM: 95.4%

SMILES: COc1cc(C=Nc2ccc3[nH]c(S)nc3c2)cc(OC)c1OC [7j, 5-((3,4,5-Trimethoxybenzylidene)amino)-1H-benzo[d]imidazole-2-thiol]
- IC50: 18.7 ± 0.74 µM
- inhibition at 500 µM: 94.7%

SMILES: Sc1nc2cc(N=Cc3cccs3)ccc2[nH]1 [7k, 5-((Thiophen-2-ylmethylene)amino)-1H-benzo[d]imidazole-2-thiol]
- IC50: 70.3 ± 1.52 µM
- inhibition at 500 µM: 87.6%

SMILES: COc1ccccc1C=Nc1ccc2[nH]c(S)nc2c1 [7l, 5-((2-Methoxybenzylidene)amino)-1H-benzo[d]imidazole-2-thiol]
- IC50: 343.1 ± 1.62 µM
- inhibition at 500 µM: 83.2%

SMILES: Cc1ccc(C=Nc2ccc3[nH]c(S)nc3c2)cc1 [7m, 5-((4-Methylbenzylidene)amino)-1H-benzo[d]imidazole-2-thiol]
- IC50: 11.1 ± 0.79 µM
- inhibition at 500 µM: 94%

SMILES: C[C@H]1O[C@H](O[C@H]2[C@H](O)[C@@H](O)[C@@H](O[C@H]3[C@H](O)[C@@H](O)C(O)O[C@@H]3CO)O[C@@H]2CO)[C@H](O)[C@@H](O)[C@@H]1N[C@H]1C=C(CO)[C@@H](O)[C@H](O)[C@H]1O (stereo partly shown) [acarbose, reference compound]
- inhibition at 500 µM: 58.5%
